Assay results: patent US20240018125A1, “CYCLIC ISOTHIOUREA DERIVATIVES AS CXCR4 MODULATORS” (ERMIUM THERAPEUTICS, priority 2020, published 2024)
Where a name gives a salt, the structure may show the parent alone.

System: peripheral blood mononuclear cells (PBMCs) from healthy donors
Experiment: IFN production by R848-activated PBMCs, quantified with twINNE luciferase reporter cell line
Assay type: cell-based, human
Conditions: Homo sapiens, PBMC; read-out: IC50 of anti-inflammatory activity (IFN production by activated PBMCs)
Description: The blood from healthy donors was obtained from “Etablissement Français du Sang” (convention #19/EFS/029), Paris, France.
In vitro experiments were performed using human peripheral blood mononuclear cells (PBMCs) isolated by density centrifugation from peripheral blood leukocyte separation medium, lymphoprep (Stemcell Technologies).
PBMCs were cultured in RPMI 1640 (Sigma-Aldrich, MO, USA) containing 10% heat-inactivated fetal bovine serum (Sigma-Aldrich, MO, USA) at 37° C./5% CO2.
The PBMCs used herein were prepared as described in part A “immune cells preparation”, above. PBMCs were seeded at 4.10^6/mL. Cells were pre-treated with different concentration of examples according to the invention. Cells were then stimulated with the TLR7/8 agonist resiquimod—R848 (Sigma-Aldrich, MO, USA) at 5 μg/mL.
To quantify the secretion of functional IFN, a biological assay based on a stable cell line where luciferase reporter gene is controlled by five Interferon-Stimulated Response Elements (twINNE cell line) was used. First, supernatants of R848-stimulated PBMCs (see part B above) were harvested after 24 h of stimulation and frozen at −20° C. for storage. Then, supernatants were dispensed in culture wells of a 96-well plate containing 35.103 twINNE cells per well in Dulbecco's Modified Eagle's Medium supplemented with 10% Foetal Bovine Serum, 100 U/mL Penicillin and 100 μg/mL Streptomycin (1% Pen-Strep) and 1 mM glutamine (Sigma-Aldrich, MO, USA) at 37° C./5% CO2. After 24 h of culture, luciferase activity was determined by adding 60 μL of Bright-Glo reagents (Promega, Wisconsin, USA) to culture wells and measuring bioluminescence with EnSpire Multimode Plate Reader (PerkinElmer, Massachusetts, USA). When stated, for IC50 calculation, dose-response curves fitted using the nonlin fit (variable slope) analysis in GraphPad Prism software (GraphPad Software, Califronia, USA).
IFN production was quantified (as specified in Materials and Methods, part C “quantification of interferon secretion”) using twINNE reporter cell line.

Row | Compound | IC50 [µM]
1 | c1ccc(N2CCC(SC3=NCc4ccccc4CN3)C2)cc1 (centres unmarked) [Example 106, 3-((1-phenylpyrrolidin-3-yl)thio)-2,5-dihydro-1H-benzo[e][1,3]diazepine hydrochloride] | 10 to 32
2 | C1=C(CSC2=NCCc3ccccc3N2)N2CC(Cc3ccccc3)N=C2S1 (centres unmarked) [Example 88, 6-benzyl-3-(((4,5-dihydro-1H-benzo[d][1,3]diazepin-2-yl)thio)methyl)-5,6-dihydroimidazo[2,1-b]thiazole dihydrochloride] | ≤ 10
3 | CN1CCC(SC2=NCCc3ccccc3N2)C1 (centres unmarked) [Example 105, 2-((1-methylpyrrolidin-3-yl)thio)-4,5-dihydro-1H-benzo[d][1,3]diazepine dihydrochloride] | 10 to 32
4 | Fc1cccc2c1CN=C(SCCCCN1CCCC1)N2 [Example 149, 5-fluoro-2-((4-(pyrrolidin-1-yl)butyl)thio)-1,4-dihydroquinazoline dihydrochloride] | ≤ 10
5 | C[C@@H](CSC1=NCc2cc(Cl)ccc2N1)N1CCCC1 [Example 166, (S)-6-chloro-2-((2-(pyrrolidin-1-yl)propyl)thio)-1,4-dihydroquinazoline dihydrochloride] | ≤ 10
6 | COc1ccc(CC2(C)CN=C(SCC3=CSC4=NCc5ccccc5CN34)N2)cc1 (centres unmarked) [Example 34, 3-(((5-(4-methoxybenzyl)-5-methyl-4,5-dihydro-1H-imidazol-2-yl)thio)methyl)-5,10-dihydrobenzo[e]thiazolo[3,2-a][1,3]diazepine dihydrochloride] | ≤ 10
7 | CN1CCC(CCSC2=NCc3ccccc3N2)C1 (centres unmarked) [Example 145, 2-((2-(1-methylpyrrolidin-3-yl)ethyl)thio)-1,4-dihydroquinazoline dihydrochloride] | 10 to 32
8 | CN1CCC(CCSC2=NCc3cc(Cl)ccc3N2)C1 (centres unmarked) [Example 177, 6-chloro-2-((2-(1-methylpyrrolidin-3-yl)ethyl)thio)-1,4-dihydroquinazoline dihydrochloride] | ≤ 10
9 | Clc1ccc2c(c1)CN=C(SCC1=CSC3=NC(Cc4ccccc4)CN13)N2 (centres unmarked) [Example 114, 6-benzyl-3-(((6-chloro-1,4-dihydroquinazolin-2-yl)thio)methyl)-5,6-dihydroimidazo[2,1-b]thiazole dihydrochloride] | ≤ 10
10 | c1ccc2c(c1)CN=C(SC1CCC[C@H]1N1CCCC1)N2 (stereo partly drawn) [Example 141, 2-(((2R)-2-(pyrrolidin-1-yl)cyclopentyl)thio)-1,4-dihydroquinazoline dihydrochloride] | 10 to 32
11 | CC1CCN(CCSC2=NCc3ccccc3N2)C1 (centres unmarked) [Example 138, 2-((2-(3-methylpyrrolidin-1-yl)ethyl)thio)-1,4-dihydroquinazoline dihydrochloride] | ≤ 10
12 | CC1(c2ccccc2)CN=C(SCCCCN2CCCC2)N1 (centres unmarked) [Example 170, 5-methyl-5-phenyl-2-((4-(pyrrolidin-1-yl)butyl)thio)-4,5-dihydro-1H-imidazole dihydrochloride] | > 32
13 | CC1(C)CN2C(CSC3=NCc4ccccc4N3)=CSC2=N1 [Example 3, 3-(((3,4-dihydroquinazolin-2-yl)thio)methyl)-6,6-dimethyl-5,6-dihydroimidazo[2,1-b]thiazole dihydrochloride] | ≤ 10
14 | c1ccc2c(c1)CN=C(SCCN1[C@@H]3CCC[C@H]1CC3)N2 [Example 133, 2-((2-((1R,5S)-8-azabicyclo[3.2.1]octan-8-yl)ethyl)thio)-3,4-dihydroquinazoline dihydrochloride] | ≤ 10
15 | IC1=C(CSC2=NCc3ccccc3N2)N2CC(Cc3ccccc3)N=C2S1 (centres unmarked) [Example 110, 6-benzyl-3-(((1,4-dihydroquinazolin-2-yl)thio)methyl)-2-iodo-5,6-dihydroimidazo[2,1-b]thiazole dihydrochloride] | ≤ 10
16 | CC(C)(C)OC(=O)N1CC[C@H](SC2=NCCc3ccccc3N2)C1 [Example 198, tert-butyl (S)-3-((4,5-dihydro-1H-benzo[d][1,3]diazepin-2-yl)thio)pyrrolidine-1-carboxylate] | 10 to 32
17 | Clc1ccc2c(c1)CN1C(CSC3=NCCN3Cc3ccccc3)=CSC1=N2 [Example 47, 3-(((1-benzyl-4,5-dihydro-1H-imidazol-2-yl)thio)methyl)-7-chloro-5H-thiazolo[2,3-b]quinazoline dihydrochloride] | ≤ 10
18 | FC(F)CN1CCC(SC2=NCc3ccccc3N2)C1 (centres unmarked) [Example 102, 2-((1-(2,2-difluoroethyl)pyrrolidin-3-yl)thio)-1,4-dihydroquinazoline hydrochloride] | 10 to 32

Row | Compound | IC50 [µM]
19 | CCCCC1CN=C(SCC2=CSC3=Nc4ccccc4CN23)N1 (centres unmarked) [Example 29, 3-(((5-butyl-4,5-dihydro-1H-imidazol-2-yl)thio)methyl)-5H-thiazolo[2,3-b]quinazoline dihydrochloride] | ≤ 10
20 | Clc1ccccc1CC1CN2C(CSC3=NCc4ccccc4N3)=CSC2=N1 (centres unmarked) [Example 123, 6-(2-chlorobenzyl)-3-(((1,4-dihydroquinazolin-2-yl)thio)methyl)-5,6-dihydroimidazo[2,1-b]thiazole dihydrochloride] | ≤ 10
21 | Clc1ccc(C2CN=C(SCC3=CSC4=NCc5ccccc5CN34)N2)cc1 (centres unmarked) [Example 22, 3-(((4-(4-chlorophenyl)-4,5-dihydro-1H-imidazol-2-yl)thio)methyl)-5,10-dihydrobenzo[e]thiazolo[3,2-a][1,3]diazepine dihydrochloride] | ≤ 10
22 | FC1(F)CCN(CCSC2=NCc3ccccc3N2)C1 [Example 125, 2-((2-(3,3-difluoropyrrolidin-1-yl)ethyl)thio)-1,4-dihydroquinazoline dihydrochloride] | 10 to 32
23 | Clc1ccc2c(c1)CN=C(SCC1=CSC3=NCCN13)N2 [Example 10, 3-(((6-chloro-1,4-dihydroquinazolin-2-yl)thio)methyl)-5,6-dihydroimidazo[2,1-b]thiazole dihydrochloride] | ≤ 10
24 | CC(CCCSC1=NCc2ccccc2N1)N1CCCC1 (centres unmarked) [Example 165, 2-((4-(pyrrolidin-1-yl)pentyl)thio)-1,4-dihydroquinazoline dihydrochloride] | 10 to 32
25 | COc1ccc(CC2(C)CN=C(SCCN3CCCC3)N2)cc1 (centres unmarked) [Example 183, 5-(4-methoxybenzyl)-5-methyl-2-((2-(pyrrolidin-1-yl)ethyl)thio)-4,5-dihydro-1H-imidazole dihydrochloride] | > 32
26 | CN1CCCC1CSC1=NCc2ccccc2N1 (centres unmarked) [Example 108, 2-(((1-methylpyrrolidin-2-yl)methyl)thio)-1,4-dihydroquinazoline dihydrochloride] | 10 to 32
27 | c1ccc2c(c1)CN=C(SCCCCN1CCCC1)NC2 [Example 171, 3-((4-(pyrrolidin-1-yl)butyl)thio)-2,5-dihydro-1H-benzo[e][1,3]diazepine dihydrochloride] | > 32
28 | C1=C(CSC2=NCC(C3CCCCC3)N2)N2Cc3ccccc3CN=C2S1 (centres unmarked) [Example 26, 3-(((4-cyclohexyl-4,5-dihydro-1H-imidazol-2-yl)thio)methyl)-5,10-dihydrobenzo[e]thiazolo[3,2-a][1,3]diazepine dihydrochloride] | ≤ 10
29 | c1ccc2c(c1)CN=C(SCCN1C[C@H]3C[C@@H]1CO3)N2 (stereo in doubt) [Example 146, (1R,4R)-5-(2-((1,4-dihydroquinazolin-2-yl)thio)ethyl)-2-oxa-5-azabicyclo[2.2.1]heptane dihydrochloride] | 10 to 32
30 | Fc1ccc2c(c1)CN=C(SCC1=CSC3=Nc4ccc(Cl)cc4CN13)N2 [Example 83, 7-chloro-3-(((6-fluoro-1,4-dihydroquinazolin-2-yl)thio)methyl)-5H-thiazolo[2,3-b]quinazoline dihydrochloride] | ≤ 10
31 | C1CN=C(SCCCCN2CCCC2)NC1 [Example 173, 2-((4-(pyrrolidin-1-yl)butyl)thio)-1,4,5,6-tetrahydropyrimidine dihydrochloride] | > 32
32 | CCCCN1Cc2ccccc2N=C1SCC1=CSC2=NC(Cc3ccccc3)CN12 (centres unmarked) [Example 93, 6-benzyl-3-(((3-butyl-3,4-dihydroquinazolin-2-yl)thio)methyl)-5,6-dihydroimidazo[2,1-b]thiazole dihydrochloride] | ≤ 10
33 | c1ccc2c(c1)NC(SCCCCN1CCCC1)=NC21CC1 [Example 180, 2′-((4-(pyrrolidin-1-yl)butyl)thio)-1′H-spiro[cyclopropane-1,4′-quinazoline] dihydrochloride] | 10 to 32
34 | CN1CC[C@H](SC2=NCCc3ccccc3N2)C1 [Example 200, (S)-2-((1-methylpyrrolidin-3-yl)thio)-4,5-dihydro-3H-benzo[d][1,3]diazepine dihydrochloride] | ≤ 10
35 | c1ccc2c(c1)CN(CCSC1=NCc3ccccc3N1)C2 [Example 71, 2-((2-(isoindolin-2-yl)ethyl)thio)-3,4-dihydroquinazoline dihydrochloride] | 10 to 32
